# In patent US20250052678A1, “EVALUATION METHOD, EVALUATION DEVICE, AND INFORMATION PROCESSING PROGRAM” (HAMAMATSU PHOTONICS K.K., priority 2021, published 2025):
# Columns and labels:
# [1] = system: Human liver cancer-derived cells (HepG2) cell aggregates; experiment: Lipid droplet formation in HepG2 cell aggregates, refractive index distribution measuring method A2 (Example 1); format: cell-based; settings: sodium oleate 0.5 mM, one day
# Experimental: Human liver cancer-derived cells (HepG2) were cultured for one day in a cell culture vessel (“EZSPHERE” manufactured by AGC-Techno Glass Co., Ltd.) having low-cell-adhesive compartments to prepare cell aggregates. The low-cell-adhesive compartments are provided with a low-protein-adhesive coat. Cell aggregates were formed in a DMEM medium containing 10% fetal bovine serum in the low-cell-adhesive compartments. A portion of the cell aggregates was cultured for one day in a DMEM medium containing 1% fatty acid-free bovine serum albumin instead of fetal bovine serum, with addition of sodium oleate to a final concentration of 0.5 mM, to induce formation of lipid droplets. The remaining portion of the cell aggregates was cultured for an additional day in a DMEM medium containing 10% fetal bovine serum without the addition of oleic acid (control). […] In the obtained refractive index distribution data, a region where the refractive index (n) was greater than 1.337 was determined as a cell aggregate region. […] A region having a refractive index (n) of greater than 1.375 was determined as a lipid droplet region. The area of the lipid droplet region present in the cell aggregate region of interest was measured.
# [2] = system: HepG2 cell aggregate (fatty liver model); experiment: Lipid droplet volume ratio by distance from center of gravity in HepG2 cell aggregates, measuring method C (Example 2); format: cell-based, Human
# Experimental: Preparation of cell aggregates, homogenization, and induction of lipid droplet formation were carried out in the same manner as in Example 1. The refractive index distribution data was evaluated in accordance with Embodiment T3 (FIG. 42). The refractive index distribution data was obtained by the refractive index distribution measuring method C. In the obtained refractive index distribution data, the center of gravity C was calculated, and the refractive index distribution data was evaluated based on distances from the center of gravity C. It was divided into concentric circles at intervals of 2.5 μm from the center of gravity C, and the ratio of the volume of lipid droplets present therein was calculated. The lipid droplet region was set as a region having a refractive index n>1.37, cell region of spheroid as a region having a refractive index n>1.34 and a medium region as a region having a refractive index n≤1.34 and the calculation was carried out. The results of the cell aggregate of the oleic acid-treated HepG2 (fatty liver model) and the control (without oleic acid) were compared.
smiles,measurement,setting,value
CCCCCCCC/C=C\CCCCCCCC(=O)O [oleic acid],formation of lipid droplets (structures with high refractive index),[1]; FIG. 41B,induced the formation of lipid droplets
same,area of the lipid droplet region per cell aggregate relative to control (without oleic acid),"[1]; lipid droplet region n>1.375, aggregates of maximum diameter 50 to 100 μm",2.75 times
same,ratio of the volume of lipid droplets versus control (without oleic acid),"[2]; concentric circles at 2.5 μm intervals from center of gravity C, lipid droplet region n>1.37",greater ratio of the volume of lipid droplets
same,distance from the center of gravity where many lipid droplets exist,[2]; oleic acid-treated and control alike,about 20 μm
